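Assay format: 96-well plates, 48-hour exposure. The concentration for 50% growth inhibition is given as GI50. TGI is the concentration that stops growth completely.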
Legend:
Test in all cases: inhibition of tumour cell growth, NCI panel, 48 h
IGROV1 ovarian = system: IGROV1 ovarian
NCI-H522 lung = system: NCI-H522 lung
RPMI-8226 leukemia = system: RPMI-8226 leukemia
SF-268 CNS = system: SF-268 CNS
UACC-257 melanoma = system: UACC-257 melanoma
RXF 393 renal = system: RXF 393 renal
DU-145 prostate = system: DU-145 prostate
HS 578T breast = system: HS 578T breast
T-47D breast = system: T-47D breast
MCF7 breast = system: MCF7 breast

Compound	TGI (IGROV1 ovarian)	TGI (NCI-H522 lung)	TGI (RPMI-8226 leukemia)	TGI (SF-268 CNS)	TGI (UACC-257 melanoma)	TGI (RXF 393 renal)	TGI (DU-145 prostate)	TGI (HS 578T breast)	TGI (T-47D breast)	GI50 (DU-145 prostate)	GI50 (HS 578T breast)	GI50 (IGROV1 ovarian)	GI50 (MCF7 breast)	TGI (MCF7 breast)	GI50 (NCI-H522 lung)	GI50 (SF-268 CNS)	GI50 (T-47D breast)	GI50 (UACC-257 melanoma)	GI50 (RPMI-8226 leukemia)	GI50 (RXF 393 renal)
NC1=NN(c2ccccc2)C(=O)C1C(=O)C(=O)Nc1cccc(C(F)(F)F)c1 (stereo not given)	> 100 µM	> 100 µM	> 100 µM	> 100 µM	> 100 µM															
N=c1oc2cc(O)c(O)cc2cc1C(N)=O	> 100 µM	> 100 µM	> 100 µM	> 100 µM	> 100 µM	> 100 µM														
Cc1ccc(C2=NN(C)COC2C(F)(F)F)cc1 (stereo not given)	> 100 µM	> 100 µM	> 100 µM	> 100 µM	> 100 µM	> 100 µM														
O=C(/C=C\c1cccc2ccccc12)c1ccc(Br)cc1	46.1 µM	35.3 µM	45.9 µM	53.1 µM	51.9 µM															
C/C(=N\[N+](C)(C)C)C(c1ccccc1)C1(c2ccccc2)C(c2ccccc2)=C1c1ccccc1 (stereo not given)	> 100 µM	> 100 µM	> 100 µM		> 100 µM	73 µM														
COc1ccc(/C(Cl)=C(\C=O)c2cc(OC)c(OC)c(OC)c2)cc1OC	> 100 µM	48.8 µM	77 µM	> 100 µM	> 100 µM	> 100 µM	> 100 µM	> 100 µM	> 100 µM											
COc1ccc2c(c1)/C(=C/c1c(-c3ccc(C)cc3)nc3sc(C)cn13)C(=O)N2	> 100 µM	> 100 µM		> 100 µM	57.1 µM		> 100 µM	> 100 µM	> 100 µM	4.75 µM	19.8 µM	32.9 µM	12.1 µM	> 100 µM	13.5 µM	11.1 µM	5.5 µM	16.8 µM		
CCC[C@H](Nc1nc(-c2ccc(NC(=O)NCC)c(OC)c2)ncc1C)c1cccnc1	24.6 µM	0.868 µM	15.1 µM	14.7 µM	28.8 µM	20 µM	0.0753 µM			0.028 µM	0.0345 µM	0.0566 µM	0.0365 µM	29.6 µM	0.0345 µM	0.0534 µM		0.82 µM	0.037 µM	0.0415 µM
CCOC(=O)C(=O)Nc1ccc([N+](=O)[O-])cc1C#N	> 100 µM	> 100 µM	> 100 µM	> 100 µM	> 100 µM	> 100 µM														
CCC[CH2][Sn]([CH2]CCC)([O]C(=O)c1cccc(F)c1F)[O][Sn]([CH2]CCC)([CH2]CCC)[O]C(=O)c1cccc(F)c1F	2.15 µM	0.0697 µM		0.541 µM	0.728 µM	0.105 µM	1.63 µM		0.186 µM	0.457 µM		0.781 µM	0.0463 µM	0.2 µM	0.01 µM	0.157 µM	0.0189 µM	0.222 µM	0.0288 µM	0.0216 µM
CCCN1C(=O)/C(=C/c2ccc(O)cc2)SC1=Nc1ccccc1	> 100 µM	> 100 µM		32.4 µM	> 100 µM	51.4 µM	40.8 µM		50.8 µM	17.4 µM		38 µM			39.7 µM	17.1 µM	22.5 µM	> 100 µM		23.2 µM
C/C=C/C/C=C/CCC(=O)C1OC1C(N)=O (stereo not given)	31.8 µM	25.8 µM		26.9 µM	31.1 µM	21.7 µM	31.3 µM	76.2 µM						30.6 µM						
O=C(CCc1ccc(O)c(O)c1)c1ccc(O)c(O)c1O	> 100 µM	41.1 µM		60.6 µM	> 100 µM		37.2 µM	> 100 µM	66.3 µM					42 µM						
Cc1ccc(NC(=O)/C(=N/NC(=O)CC#N)C2C(=O)N(c3ccccc3)N=C2N)cc1C (stereo not given)	> 100 µM	> 100 µM	> 100 µM	> 100 µM	> 100 µM	> 100 µM														
COc1ccc(C2c3cc4c(cc3OC(O)(CO)C2C(=O)O)OCO4)c(OC)c1OC (stereo not given) (tested in a mixture with another compound)	> 100 µM		> 100 µM		> 100 µM	> 100 µM														
CC1(C)OC(=O)C=C(O)O1.CC1(C)OC(=O)C=C(O)O1.CCO.Oc1ccc2c(c1)CCC2.[Ti]	> 100 µM	> 100 µM	> 100 µM	> 100 µM	> 100 µM	> 100 µM						> 100 µM			> 100 µM	> 100 µM		> 100 µM	> 100 µM	> 100 µM
CC1CC(C)C(=O)C(C(=O)CC2CC(=O)NC2=O)C1 (stereo not given)	> 100 µM	> 100 µM	> 100 µM	> 100 µM	> 100 µM	> 100 µM														
N#Cc1c(SCc2ccccc2)nc2[nH]c(=S)[nH]c(=S)c2c1-c1ccco1	> 100 µM	> 100 µM	13.9 µM	> 100 µM	> 100 µM	> 100 µM	> 100 µM	> 100 µM		54 µM	70.6 µM	> 100 µM	28.4 µM	> 100 µM	> 100 µM	32.4 µM		66.5 µM	2.22 µM	37.9 µM
CC1(C)CC2=NOS3=C2C(=NO3)C1c1ccccn1 (stereo not given)	84.5 µM	90.2 µM	> 100 µM	> 100 µM	> 100 µM		> 100 µM	> 100 µM	> 100 µM					> 100 µM						
CCC(=O)Nc1ccc2c(c1)CN1C(=O)c3ccccc3C1=N2	> 100 µM	> 100 µM	> 100 µM	> 100 µM	> 100 µM		> 100 µM	> 100 µM	> 100 µM	> 100 µM	> 100 µM	> 100 µM	> 100 µM	> 100 µM	> 100 µM	> 100 µM	> 100 µM	> 100 µM	> 100 µM	

From PubChem BioAssay (NCI)
